ChEMBL document CHEMBL1201862, “PubChem BioAssay data set” (2004)
The source made the active and inactive calls.

How the values were obtained:
[1] = molecular target: Ras and Rab interactor 1/Tyrosine-protein kinase ABL1 (Homo sapiens, UniProt P00519+Q13671); assay type: functional;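 further: biochemical TR-FRET dose-response test measuring inhibition of binding between Rin1 and Abl proteins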
[2] = Shn3 3'UTR reporter inhibitors, dose response, cell-based, Clone20 osteoblasts, firefly luciferase, cherry-picked (AID 624132); assay type: functional;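 further: firefly luciferase luminescence from reporter carrying the Shn3 3'UTR in osteoblasts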
[3] = cytotoxicity toward NIH3T3 fibroblasts, dose response, counter-screen, cell-based, ATP luminescence, mouse fibroblasts (AID 2010); assay type: functional;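 further: cells exposed to compound for about 90 hours before reading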
[4] = control 3'UTR Renilla luciferase suppression, dose response, counter-screen for Shn3 inhibitor project, cell-based, Clone20-Shn3RL, cherry-picked (AID 624133); assay type: functional
[5] = molecular target: T1, Apoptotic protease-activating factor 1 (Homo sapiens, UniProt O14727); assay type: functional
T1 sequence (O14727 whole entry): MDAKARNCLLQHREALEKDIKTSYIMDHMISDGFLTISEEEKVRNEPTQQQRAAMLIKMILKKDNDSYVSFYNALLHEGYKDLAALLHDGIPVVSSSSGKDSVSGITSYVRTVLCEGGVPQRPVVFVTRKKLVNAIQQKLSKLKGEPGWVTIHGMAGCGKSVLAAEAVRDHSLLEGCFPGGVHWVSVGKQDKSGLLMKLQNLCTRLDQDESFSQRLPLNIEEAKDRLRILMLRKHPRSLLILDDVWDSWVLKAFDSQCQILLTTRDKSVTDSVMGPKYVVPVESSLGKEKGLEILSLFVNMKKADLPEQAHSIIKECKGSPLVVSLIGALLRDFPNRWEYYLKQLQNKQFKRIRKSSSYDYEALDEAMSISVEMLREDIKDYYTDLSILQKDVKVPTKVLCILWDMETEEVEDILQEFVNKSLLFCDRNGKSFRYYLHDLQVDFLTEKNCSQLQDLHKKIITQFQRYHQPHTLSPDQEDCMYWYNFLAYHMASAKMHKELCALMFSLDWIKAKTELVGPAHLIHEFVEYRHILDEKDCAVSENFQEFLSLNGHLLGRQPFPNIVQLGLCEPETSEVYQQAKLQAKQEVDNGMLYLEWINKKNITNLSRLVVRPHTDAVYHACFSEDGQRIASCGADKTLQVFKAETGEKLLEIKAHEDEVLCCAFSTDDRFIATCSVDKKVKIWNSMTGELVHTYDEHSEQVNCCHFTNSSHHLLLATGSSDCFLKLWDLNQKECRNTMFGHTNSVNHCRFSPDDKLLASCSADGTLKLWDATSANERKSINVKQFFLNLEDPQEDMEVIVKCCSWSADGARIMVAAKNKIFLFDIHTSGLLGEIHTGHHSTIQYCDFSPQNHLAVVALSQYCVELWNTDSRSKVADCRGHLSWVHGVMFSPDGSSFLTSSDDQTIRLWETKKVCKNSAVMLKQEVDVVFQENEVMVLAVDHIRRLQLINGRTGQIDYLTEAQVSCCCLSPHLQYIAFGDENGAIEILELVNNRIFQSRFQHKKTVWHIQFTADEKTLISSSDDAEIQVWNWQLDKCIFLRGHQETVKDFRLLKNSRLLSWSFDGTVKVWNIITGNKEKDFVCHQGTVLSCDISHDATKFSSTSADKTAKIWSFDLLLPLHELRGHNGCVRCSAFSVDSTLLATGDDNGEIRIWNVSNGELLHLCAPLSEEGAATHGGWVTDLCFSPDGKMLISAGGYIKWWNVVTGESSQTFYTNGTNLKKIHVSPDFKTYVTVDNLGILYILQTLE

[6] = molecular target: Dual specificity tyrosine-phosphorylation-regulated kinase 1A (Rattus norvegicus, UniProt Q63470); assay type: biochemical, Homo sapiens
[7] = molecular target: Mitogen-activated protein kinase kinase kinase kinase 5 (Homo sapiens, UniProt Q9Y4K4); assay type: functional;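 further: measured as one member of a kinome-spanning kinase panel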
[8] = molecular target: Serine/threonine-protein kinase 3 (Homo sapiens, UniProt Q13188); assay type: functional;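 further: measured as one member of a kinome-wide kinase panel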
[9] = molecular target: Tyrosine-protein kinase receptor UFO (Homo sapiens, UniProt P30530); assay type: functional
[10] = molecular target: Tyrosine-protein kinase Lyn (Homo sapiens, UniProt P07948); assay type: functional;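 further: lyn as one member of a kinase panel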
[11] = molecular target: cAMP-dependent protein kinase catalytic subunit alpha (Homo sapiens, UniProt P17612); assay type: functional
[12] = molecular target: Mitogen-activated protein kinase kinase kinase kinase 4 (Homo sapiens, UniProt O95819); assay type: functional
[13] = molecular target: Serine/threonine-protein kinase N2 (Homo sapiens, UniProt Q16513); assay type: functional
[14] = molecular target: Misshapen-like kinase 1 (Homo sapiens, UniProt Q8N4C8); assay type: functional;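 further: kinome panel screen with MINK as the panel member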
[15] = molecular target: Vascular endothelial growth factor receptor 3 (Homo sapiens, UniProt P35916); assay type: functional;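 further: value from a kinome-wide profiling panel, with FLT4 as the panel member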
[16] = molecular target: Mitogen-activated protein kinase 14 (Homo sapiens, UniProt Q16539); assay type: functional;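 further: part of a kinome-wide panel, MAPK14 entry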
[17] = molecular target: Aurora kinase B (Homo sapiens, UniProt Q96GD4); assay type: functional
[18] = molecular target: T2, Caspase-3 (Homo sapiens, UniProt P42574); assay type: functional;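 further: Dose-response selectivity test against caspase-3 for candidate inhibitors of sentrin-specific proteases (SENPs)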
T2 sequence (P42574 whole entry): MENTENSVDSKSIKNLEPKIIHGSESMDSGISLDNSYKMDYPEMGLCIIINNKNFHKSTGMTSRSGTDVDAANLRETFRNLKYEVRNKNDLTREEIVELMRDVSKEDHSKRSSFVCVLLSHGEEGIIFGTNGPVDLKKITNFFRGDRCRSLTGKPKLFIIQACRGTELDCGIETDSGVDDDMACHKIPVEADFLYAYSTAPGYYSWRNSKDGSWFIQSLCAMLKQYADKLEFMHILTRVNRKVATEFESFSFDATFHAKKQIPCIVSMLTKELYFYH

[19] = molecular target: Cytochrome P450 2C9 (Homo sapiens, UniProt P11712)

Chain of Mitogen-activated protein kinase 14 (Q16539 whole entry): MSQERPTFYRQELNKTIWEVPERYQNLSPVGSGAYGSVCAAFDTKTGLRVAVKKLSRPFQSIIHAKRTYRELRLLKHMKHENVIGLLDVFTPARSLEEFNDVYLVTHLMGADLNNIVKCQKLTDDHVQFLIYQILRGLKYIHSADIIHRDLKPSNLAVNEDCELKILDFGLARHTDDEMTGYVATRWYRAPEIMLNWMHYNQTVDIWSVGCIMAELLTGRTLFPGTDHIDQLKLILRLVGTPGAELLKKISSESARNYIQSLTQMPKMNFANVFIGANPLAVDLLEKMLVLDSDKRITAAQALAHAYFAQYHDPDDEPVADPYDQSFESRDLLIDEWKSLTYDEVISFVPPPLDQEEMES
Chain of Vascular endothelial growth factor receptor 3 (P35916 whole entry): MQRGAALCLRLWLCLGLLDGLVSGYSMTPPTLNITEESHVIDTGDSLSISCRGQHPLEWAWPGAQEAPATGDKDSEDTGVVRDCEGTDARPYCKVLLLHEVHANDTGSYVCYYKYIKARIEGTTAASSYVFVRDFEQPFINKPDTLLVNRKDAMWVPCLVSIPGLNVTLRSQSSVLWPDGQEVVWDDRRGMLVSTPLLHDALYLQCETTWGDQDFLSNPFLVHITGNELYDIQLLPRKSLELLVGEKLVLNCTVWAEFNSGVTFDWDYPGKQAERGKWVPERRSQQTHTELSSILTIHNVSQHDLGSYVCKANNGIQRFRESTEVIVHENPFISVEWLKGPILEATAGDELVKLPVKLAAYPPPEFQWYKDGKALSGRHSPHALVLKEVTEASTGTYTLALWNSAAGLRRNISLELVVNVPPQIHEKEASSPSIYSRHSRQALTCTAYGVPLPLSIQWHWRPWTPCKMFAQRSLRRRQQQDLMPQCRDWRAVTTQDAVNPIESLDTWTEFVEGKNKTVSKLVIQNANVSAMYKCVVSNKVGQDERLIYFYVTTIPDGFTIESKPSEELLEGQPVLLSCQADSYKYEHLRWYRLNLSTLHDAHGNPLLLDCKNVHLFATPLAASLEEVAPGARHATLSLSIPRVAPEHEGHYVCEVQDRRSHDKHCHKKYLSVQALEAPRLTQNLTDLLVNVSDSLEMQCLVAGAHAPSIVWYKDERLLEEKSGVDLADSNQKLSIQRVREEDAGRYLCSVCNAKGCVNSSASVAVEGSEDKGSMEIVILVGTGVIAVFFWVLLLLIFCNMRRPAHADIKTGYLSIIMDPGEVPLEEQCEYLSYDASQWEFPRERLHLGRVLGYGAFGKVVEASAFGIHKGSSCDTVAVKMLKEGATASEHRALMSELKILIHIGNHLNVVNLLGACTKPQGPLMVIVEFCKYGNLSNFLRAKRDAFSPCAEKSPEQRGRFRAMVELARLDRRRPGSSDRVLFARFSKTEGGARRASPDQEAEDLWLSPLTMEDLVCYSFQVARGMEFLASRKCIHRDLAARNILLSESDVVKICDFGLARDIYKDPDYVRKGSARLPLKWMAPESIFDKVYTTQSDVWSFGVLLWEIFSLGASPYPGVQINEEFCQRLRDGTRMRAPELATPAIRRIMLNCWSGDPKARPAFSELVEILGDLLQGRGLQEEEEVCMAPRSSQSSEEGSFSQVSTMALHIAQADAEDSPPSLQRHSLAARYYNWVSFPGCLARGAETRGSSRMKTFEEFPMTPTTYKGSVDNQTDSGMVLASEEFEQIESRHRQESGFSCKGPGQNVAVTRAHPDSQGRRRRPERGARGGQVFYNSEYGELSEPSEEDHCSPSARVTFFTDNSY
Chain of Mitogen-activated protein kinase kinase kinase kinase 5 (Q9Y4K4 whole entry): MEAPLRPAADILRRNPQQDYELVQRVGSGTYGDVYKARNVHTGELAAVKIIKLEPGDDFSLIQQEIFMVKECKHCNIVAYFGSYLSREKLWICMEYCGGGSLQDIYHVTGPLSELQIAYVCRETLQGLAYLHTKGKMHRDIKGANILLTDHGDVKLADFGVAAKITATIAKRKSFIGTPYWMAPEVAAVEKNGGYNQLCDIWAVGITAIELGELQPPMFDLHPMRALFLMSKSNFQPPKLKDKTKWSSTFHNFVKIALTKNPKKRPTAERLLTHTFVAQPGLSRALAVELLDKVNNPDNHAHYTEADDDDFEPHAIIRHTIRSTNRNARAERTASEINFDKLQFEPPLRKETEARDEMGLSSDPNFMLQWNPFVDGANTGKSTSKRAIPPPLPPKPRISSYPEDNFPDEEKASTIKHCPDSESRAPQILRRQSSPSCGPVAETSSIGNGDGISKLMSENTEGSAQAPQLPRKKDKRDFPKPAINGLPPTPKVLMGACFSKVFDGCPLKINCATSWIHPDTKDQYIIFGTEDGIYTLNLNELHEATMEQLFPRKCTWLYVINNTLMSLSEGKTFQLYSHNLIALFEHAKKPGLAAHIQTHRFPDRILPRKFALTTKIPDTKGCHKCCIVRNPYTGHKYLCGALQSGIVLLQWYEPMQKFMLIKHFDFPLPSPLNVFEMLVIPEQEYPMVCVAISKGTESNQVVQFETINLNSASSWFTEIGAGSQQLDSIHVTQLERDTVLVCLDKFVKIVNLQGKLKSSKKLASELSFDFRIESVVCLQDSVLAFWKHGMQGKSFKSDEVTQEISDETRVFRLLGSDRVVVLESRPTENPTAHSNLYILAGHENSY
Chain of Tyrosine-protein kinase Lyn (P07948 whole entry): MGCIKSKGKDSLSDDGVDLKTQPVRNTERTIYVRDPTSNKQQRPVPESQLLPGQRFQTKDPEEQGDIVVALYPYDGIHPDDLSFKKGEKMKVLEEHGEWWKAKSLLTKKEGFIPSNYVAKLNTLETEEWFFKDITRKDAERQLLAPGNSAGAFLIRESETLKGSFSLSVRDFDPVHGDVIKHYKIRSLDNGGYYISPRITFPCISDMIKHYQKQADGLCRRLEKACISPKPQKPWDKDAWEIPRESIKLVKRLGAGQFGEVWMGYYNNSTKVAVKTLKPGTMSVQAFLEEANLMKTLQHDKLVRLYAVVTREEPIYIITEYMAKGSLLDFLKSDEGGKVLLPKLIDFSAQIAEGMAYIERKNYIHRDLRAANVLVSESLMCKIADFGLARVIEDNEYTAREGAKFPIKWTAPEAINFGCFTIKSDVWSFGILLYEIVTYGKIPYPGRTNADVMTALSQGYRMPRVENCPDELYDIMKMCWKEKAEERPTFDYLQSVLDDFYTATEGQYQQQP
Chain of Aurora kinase B (Q96GD4 whole entry): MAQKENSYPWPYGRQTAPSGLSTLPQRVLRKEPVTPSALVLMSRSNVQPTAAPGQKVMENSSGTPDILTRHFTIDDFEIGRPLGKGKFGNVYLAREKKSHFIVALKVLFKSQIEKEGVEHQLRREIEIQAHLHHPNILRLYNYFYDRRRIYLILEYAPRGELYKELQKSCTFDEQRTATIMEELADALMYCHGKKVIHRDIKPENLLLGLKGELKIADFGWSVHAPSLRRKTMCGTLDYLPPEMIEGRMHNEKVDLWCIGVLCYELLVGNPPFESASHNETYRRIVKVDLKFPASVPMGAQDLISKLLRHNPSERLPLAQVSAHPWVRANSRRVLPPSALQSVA
Chain of Misshapen-like kinase 1 (Q8N4C8 whole entry): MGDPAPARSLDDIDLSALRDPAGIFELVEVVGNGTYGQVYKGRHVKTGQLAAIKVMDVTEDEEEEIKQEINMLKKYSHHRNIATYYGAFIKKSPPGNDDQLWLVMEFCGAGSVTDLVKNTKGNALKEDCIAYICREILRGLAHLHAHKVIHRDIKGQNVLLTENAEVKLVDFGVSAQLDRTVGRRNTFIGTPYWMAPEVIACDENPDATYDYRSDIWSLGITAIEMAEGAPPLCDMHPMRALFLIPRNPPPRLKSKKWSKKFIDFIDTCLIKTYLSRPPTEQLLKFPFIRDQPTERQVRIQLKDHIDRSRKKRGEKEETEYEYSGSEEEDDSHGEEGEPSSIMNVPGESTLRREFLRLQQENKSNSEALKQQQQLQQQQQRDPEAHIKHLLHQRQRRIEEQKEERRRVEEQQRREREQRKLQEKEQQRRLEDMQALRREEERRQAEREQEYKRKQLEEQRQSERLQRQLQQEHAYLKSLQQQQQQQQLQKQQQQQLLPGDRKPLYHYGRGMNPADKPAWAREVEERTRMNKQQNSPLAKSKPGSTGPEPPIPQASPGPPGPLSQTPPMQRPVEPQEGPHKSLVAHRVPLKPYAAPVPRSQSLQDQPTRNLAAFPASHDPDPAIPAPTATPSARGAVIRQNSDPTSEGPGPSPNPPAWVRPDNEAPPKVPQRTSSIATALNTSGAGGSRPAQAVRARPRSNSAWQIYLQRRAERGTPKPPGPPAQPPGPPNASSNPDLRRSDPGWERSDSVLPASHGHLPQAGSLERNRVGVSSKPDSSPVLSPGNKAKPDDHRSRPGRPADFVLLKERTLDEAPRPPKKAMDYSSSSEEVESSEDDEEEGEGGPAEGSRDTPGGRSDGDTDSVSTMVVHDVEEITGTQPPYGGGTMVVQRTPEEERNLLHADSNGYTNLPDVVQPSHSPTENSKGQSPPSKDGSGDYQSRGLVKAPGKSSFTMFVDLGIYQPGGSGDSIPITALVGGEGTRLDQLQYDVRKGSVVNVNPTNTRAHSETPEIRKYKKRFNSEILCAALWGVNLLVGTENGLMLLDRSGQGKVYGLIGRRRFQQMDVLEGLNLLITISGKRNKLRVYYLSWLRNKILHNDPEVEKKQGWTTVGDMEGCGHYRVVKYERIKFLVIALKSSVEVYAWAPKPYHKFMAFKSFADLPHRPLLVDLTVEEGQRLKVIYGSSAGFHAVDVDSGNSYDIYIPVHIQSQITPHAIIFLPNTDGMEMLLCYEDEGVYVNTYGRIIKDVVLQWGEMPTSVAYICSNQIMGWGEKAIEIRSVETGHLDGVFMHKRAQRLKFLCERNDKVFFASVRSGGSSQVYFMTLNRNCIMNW

In the case of `CCn1nc(/C=C/c2ccccc2)nc2c(=O)n(C)c(=O)nc1-2`, the IC50 [1] is reported as > 73.5 µM (inactive), the AC50 [2] is reported as 2.57 µM (active) and the EC50 [3] is reported as 1.02 µM (active). The AC50 [4] was 5.79 µM (active), the IC50 [5] was 0.0572 µM (active) and the AC50 [6] was 0.281 µM (active).

In the case of `COc1cc2c(cc1Nc1nc(Nc3cccc(F)c3C(N)=O)c3cc[nH]c3n1)N(C(=O)CN(C)C)CC2`, the Ki [7] is reported as > 7.94 µM (inactive), the Ki [8] is reported as > 3.16 µM (inactive) and the Ki [9] is reported as 0.126 µM (active). The Ki [10] was > 1.58 µM (inactive), the Ki [11] was > 1.26 µM (inactive) and the Ki [12] was > 5.01 µM (inactive). For the same compound, the Ki [13] was > 7.94 µM (inactive), the Ki [14] was 3.98 µM (active) and the Ki [15] was > 6.31 µM (inactive). For the same compound, the Ki [16] was > 3.98 µM (inactive) and the Ki [17] was > 3.98 µM (inactive).

With `CC(C)c1ccc(-c2nnn(CCC(=O)O)n2)cc1` the IC50 [18] was 48.6 µM (active) and the AC50 [19] was 31.6 µM (inconclusive).
